Assay results reported in patent US20220145343A1 (priority 2019, published 2022).
Read-outs that look alike come from different tables or passages of the source. Marks after values point to notes of the source that are not given here.

Experiments:
[1] = biological target: NmSiaDW α2-6-sialyltransferase activity (Neisseria meningitidis, UniProt O33390); experiment: Enzyme kinetics by varying CMP-Neu5Ac concentrations, fixed acceptor G2 or G10; format: biochemical; conditions: apparent, fixed acceptor 1 mM (row names the acceptor)
Description: Enzyme kinetics by varying donor concentrations. For varying UDP-Gal concentrations, reactions were performed in duplicate at 30° C. for 10 minutes in the presence of MES buffer (100 mM, pH 6.5), MgCl2 (10 mM), S3 or S9 (2 mM), UDP-Gal (0.1, 0.2, 0.5, 1.0, 2.0, 5.0 and 10.0 mM), and NmSiaDW (0.025 μM for S3, 0.031 μM for S9) in a total volume of 20 μL. For varying CMP-Neu5Ac concentrations, reactions were performed in duplicate at 30° C. for 10 minutes in the presence of Tris-HCl buffer (100 mM, pH 8.0), MgCl2 (10 mM), G2 or G10 (1 mM), CMP-Neu5Ac (0.2, 0.5, 1.0, 2.0, 5.0 and 10.0 mM), and NmSiaDW (0.025 μM for G2, 0.062 μM for G10) in a total volume of 20 μL. Data analyses were carried out as described above.
NmSiaDW kinetics studies where the concentrations of the donors were also conducted, using a fixed concentration of a representative short or long acceptor substrate. S3 or S9 was used as the acceptor substrate for varying the concentration of UDP-Gal and G2 or G10 was used as the acceptor substrate for varying the concentration of CMP-Neu5Ac. […] The averages of nonlinear regression standard errors from technical duplicates are shown.

[2] = biological target: NmSiaDW sialyltransferase activity (Neisseria meningitidis, UniProt O33390); conditions: apparent; varying acceptor, 10 mM CMP-Neu5Ac, pH 8.0, 30° C.
[3] = test system: α2-6-sialyltransferase activity of NmSiaDW; format: biochemical, Neisseria meningitidis
NmCSS and PmAldolase = format: biochemical, Neisseria meningitidis; Pasteurella multocida
[4] = test system: α2-6-sialyltransferase activity of NmSiaDW; format: biochemical, Neisseria meningitidis; remark: listed apart in the source
[5] = biological target: NmSiaDW α1-4-galactosyltransferase activity (Neisseria meningitidis, UniProt O33390); format: biochemical; conditions: apparent; varying UDP-Gal, fixed acceptor 2 mM (row names the acceptor)
[6] = biological target: NmSiaDW galactosyltransferase activity (Neisseria meningitidis, UniProt O33390); conditions: for increase of overall catalytic efficiency (kcat/KM) relative to monosaccharide S1: monosaccharide to nonasaccharide
NmSiaDW [7] = experiment: Thermostability of NmSiaDW (pre-heated 30 min, then activity assay at 30° C.); format: biochemical, Neisseria meningitidis
Description: Enzyme was pre-heated at a given temperature for 30 min, then put on ice for 10 min. Reactions were performed at 30° C. and activity assays were then carried out as described above for the temperature profile assays.

NmSiaDW [8] = experiment: Temperature profile of NmSiaDW activities; format: biochemical, Neisseria meningitidis
Description: Assays were carried out in duplicate at different temperatures for 20 min in a total volume of 10 μL in a buffer (MES, 100 mM, pH 6.5 for GalT and Tris-HCl, 100 mM, pH 8.0 for SiaT assays) containing a donor substrate (1.2 mM) (UDP-Gal for GalT and CMP-Neu5Ac for SiaT assays), an acceptor substrate (1 mM) (S1 for GalT and G2 for SiaT assays), MgCl2 (10 mM), and NmSiaDW (19.8 μg for GalT and 0.17 μg for SiaT assays). Reactions were quenched by adding 10 μL of pre-chilled ethanol to the reaction mixture followed by incubation at −20° C. for 30 min. Products were assayed as described above for pH profile studies.

[9] = apparent, varying acceptor, 2 mM UDP-Gal, pH 6.5, 30° C.
[10] = α1-4-galactosyltransferase activity

`CC(=O)N[C@H]1[C@H]([C@H](O)[C@H](O)CO)O[C@@](OCCCNC(=O)OCc2ccccc2)(C(=O)O)C[C@@H]1O[C@H]1O[C@H](CO)[C@H](O)[C@H](O)[C@H]1O` [G2, Galα1-4Neu5AcαProNHCbz] was tested, and the kcat [1] was 7.1 ± 0.2 s⁻¹.

In the case of `CC(=O)N[C@H]1[C@H]([C@H](O)[C@H](O)CO)O[C@@](OC[C@H]2O[C@H](O[C@H]3C[C@](OC[C@H]4O[C@H](O[C@H]5C[C@](OC[C@H]6O[C@H](O[C@H]7C[C@](OC[C@H]8O[C@H](O[C@H]9C[C@](OCCCNC(=O)OCc%10ccccc%10)(C(=O)O)O[C@@H]([C@H](O)[C@H](O)CO)[C@@H]9NC(C)=O)[C@H](O)[C@@H](O)[C@H]8O)(C(=O)O)O[C@@H]([C@H](O)[C@H](O)CO)[C@@H]7NC(C)=O)[C@H](O)[C@@H](O)[C@H]6O)(C(=O)O)O[C@@H]([C@H](O)[C@H](O)CO)[C@@H]5NC(C)=O)[C@H](O)[C@@H](O)[C@H]4O)(C(=O)O)O[C@@H]([C@H](O)[C@H](O)CO)[C@@H]3NC(C)=O)[C@H](O)[C@@H](O)[C@H]2O)(C(=O)O)C[C@@H]1O[C@H]1O[C@H](CO)[C@H](O)[C@H](O)[C@H]1O` [G10, Galα1(-4Neu5Acα2-6Galα1)4-4Neu5AcαProNHCbz], the kcat [2] is reported as 7.03 ± 0.39 s⁻¹ and the kcat [1] is reported as 6.1 ± 0.2 s⁻¹.

In the case of `CO[C@H]1O[C@H](CO)[C@H](O)[C@H](O)[C@H]1O` [GalαOMe], the Product [3] is reported as “Not Detected”.

In the case of `OC[C@H]1O[C@@H](O[C@H]2[C@H](O)[C@@H](O)C(O)O[C@@H]2CO)[C@H](O)[C@@H](O)[C@H]1O` (some centres unmarked) [Galβ1-4Glc], the Product [3] is reported as “√”.

In the case of `[N-]=[N+]=N[C@H](C=O)[C@@H](O)[C@H](O)[C@H](O)CO` [Man2N3, 2-azido-2-deoxy-mannose], the “Percentage conversion (%) CMP-Sialic acid” value (NmCSS and PmAldolase) is reported as 77 ± 1 ^b % and the “Percentage conversion (%) Transferase Reaction” value [4] is reported as 0%.

In the case of `CC(=O)N[C@@H]1C(O)O[C@H](CN=[N+]=[N-])[C@@H](O)[C@@H]1O` (some centres unmarked) [ManNAc6N3, 6-azido-6-deoxy-N-acetylmannosamine], the “Percentage conversion (%) CMP-Sialic acid” value (NmCSS and PmAldolase) is reported as 91 ± 10 ^b %.

For `CC(=O)NC[C@@H](O)[C@@H](O)[C@H](O)[C@@H](C=O)NC(C)=O` [ManNAc6NAc, 6-N-acetyl-6-deoxy-N-acetylmannosamine], the “Percentage conversion (%) CMP-Sialic acid” value (NmCSS and PmAldolase) was 87 ± 2 ^b % and the “Percentage conversion (%) Transferase Reaction” value [4] was 0%.

`[N-]=[N+]=NCC(=O)N[C@@H]1C(O)O[C@H](CO)[C@@H](O)[C@@H]1O` (some centres unmarked) [ManNAz, N-azidoacetylmannosamine] was tested, and the “Percentage conversion (%) CMP-Sialic acid” value (NmCSS and PmAldolase) was “Quantitative ^b”.

`CC(=O)N[C@H]1[C@H]([C@H](O)[C@H](O)CO)O[C@@](OCCCNC(=O)OCc2ccccc2)(C(=O)O)C[C@@H]1O[C@H]1O[C@H](CO[C@]2(C(=O)O)C[C@H](O)[C@@H](NC(C)=O)[C@H]([C@H](O)[C@H](O)CO)O2)[C@H](O)[C@H](O)[C@H]1O` [S3, Neu5Acα2-6Galα1-4Neu5AcαProNHCbz] was tested, and the kcat [5] was 6.3 ± 0.2 s⁻¹.

In the case of `CC(=O)N[C@H]1[C@H]([C@H](O)[C@H](O)CO)O[C@@](OCCCNC(=O)OCc2ccccc2)(C(=O)O)C[C@@H]1O[C@H]1O[C@H](CO[C@]2(C(=O)O)C[C@H](O[C@H]3O[C@H](CO[C@]4(C(=O)O)C[C@H](O[C@H]5O[C@H](CO[C@]6(C(=O)O)C[C@H](O[C@H]7O[C@H](CO[C@]8(C(=O)O)C[C@H](O)[C@@H](NC(C)=O)[C@H]([C@H](O)[C@H](O)CO)O8)[C@H](O)[C@H](O)[C@H]7O)[C@@H](NC(C)=O)[C@H]([C@H](O)[C@H](O)CO)O6)[C@H](O)[C@H](O)[C@H]5O)[C@@H](NC(C)=O)[C@H]([C@H](O)[C@H](O)CO)O4)[C@H](O)[C@H](O)[C@H]3O)[C@@H](NC(C)=O)[C@H]([C@H](O)[C@H](O)CO)O2)[C@H](O)[C@H](O)[C@H]1O` [S9, Neu5Acα2(-6Galα1-4Neu5Acα2)4-ProNHCbz], the kcat [5] is reported as 9.0 ± 0.2 s⁻¹, the Km [6, 9] is reported as < 50 µM and the kcat [6, 9] is reported as 5.1 ± 0.3 s⁻¹. The “acceptor concentration above which substrate inhibition was observed” value ([6]; galactosyltransferase activity, 2 mM UDP-Gal) was “higher than 2 mM”, the “increase of overall catalytic efficiency (kcat/KM) relative to monosaccharide S1” value ([6]; galactosyltransferase activity) was “more than 2100 fold” and the “increase of overall catalytic efficiency (kcat/KM) relative to monosaccharide S1” value ([6]; galactosyltransferase activity, listed as nonasaccharide) was “More than 2300 fold”.

B1: NmSiaDW: recombinant C-terminal His-tagged N. meningitidis serogroup W capsular polysaccharide synthase, SEQ ID NO:2 (protein)
chain: MAVIIFVNGIRAVNGLVKSSINTANAFAEEGLDVHLINFVGNITGAEHLYPPFHLHPNVKTSSIIDLFNDIPENVSCRNTPFYSIHQQFFKAEYSAHYKHVLMKIESLLSAEDSIIFTHPLQLEMYRLANNDIKSKAKLIVQIHGNYMEEIHNYEILARNIDYVDYLQTVSDEMLEEMHSHFKIKKDKLVFIPNITYPISLEKKEADFFIKDNEDIDNAQKFKRISIVGSIQPRKNQLDAIKIINKIKNENYILQIYGKSINKDYFELIKKYIKDNKLQNRILFKGESSEQEIYENTDILIMTSESEGFPYIFMEGMVYDIPIVVYDFKYGANDYSNYNENGCVFKTGDISGMAKKIIELLNNPEKYKELVQYNHNRFLKEYAKDVVMAKYFTILPRSFNNVSLSSAFSRKELDEFQNITFSIEDSNDLAHIWNFELTNPAQNMNFFALVGKRKFPMDAHIQGTQCTIKIAHKKTGNLLSLLLKKRNQLNLSRGYTLIAEDNSYEKYIGAISNKGNFEIIANKKSSLVTINKSTLELHEIPHELHQNKLLIALPNMQTPLKITDDNLIPIQASIKLEKIGNTYYPCFLPSGIFNNICLDYGEESKIINFSKYSYKYIYDSIRHIEQHTDISDIIVCNVYSWELIRASVIESLMEFTGKWEKHFQTSPKIDYRFDHEGKRSMDDVFSEETFIMEFPRKNGIDKKTAAFQNIPNSIVMEYPQTNGYSMRSHSLKSNVVAAKHFLEKLNKIKVDIKFKKHDLANIKKMNRIIYEHLGININIEAFLKPRLEKFKREEKYFHDFFKRNNFKEVIFPSTYWNPGIICAAHKQGIKVSDIQYAAITPYHPAYFKSPKSHYVADKLFLWSEYWNHELLPNPTREIGSGAAYWYALDDVRFSEKLNYDYIFLSQSRISSRLLSFAIEFALKNPQLQLLFSKHPDENIDLKNRIIPDNLIISTESSIQGINESRVAVGVYSTSLFEALACGKQTFVVKYPGYEIMSNEIDSGLFFAVETPEEMLEKTSPNWVAVADIENQFFGQEK
For B1, the “incubation temperature at which both glycosyltransferase activities were lost (30 minutes)” value (NmSiaDW [7]; both activities) was 44 °C, the “temperature up to which activity is retained after 30 minutes incubation” value (NmSiaDW [7]; [10]) was “up to 33 °C” and the “incubation temperature above which activity decreased significantly (30 minutes)” value (NmSiaDW [7]; α2-6-sialyltransferase activity) was “higher than 30 °C”. For the same molecule, the optimal temperature (NmSiaDW [8]; sialyltransferase activity) was 30-37 °C and the optimal temperature (NmSiaDW [8]; [10]) was 20-33 °C.
